Reference: publication PMC10301922, “Anti-Oxidant, Anti-Mutagenic Activity and Safety Evaluation of Antrocin” (Toxics, 2023)

Tests used:
[1] = tested on: Salmonella typhimurium TA98; test: Ames test (plate incorporation), TA98
Sprague Dawley rats [2] = test: 28-day oral toxicity test: hematology
Sprague Dawley rats [3] = test: 28-day oral toxicity test: serum biochemistry
[4] = female rats, 7.5 mg/kg oral 28 d
[5] = female rats, 37.5 mg/kg oral 28 d
[6] = male rats, 37.5 mg/kg oral 28 d

C=C1CC[C@H]2C(C)(C)CCC[C@@]23C(=O)OC[C@@H]13 [Antrocin, (-)-Antrocin]
Number of Revertant ([1]; TA98, with S9, 0.003125 mg/plate): 33.7 ± 1.2 Colony/Plate
Number of Revertant ([1]; TA98, with S9, 0.00625 mg/plate): 32.0 ± 1.6 Colony/Plate
Number of Revertant ([1]; TA98, with S9, 0.025 mg/plate): 34.3 ± 3.3 Colony/Plate
Number of Revertant ([1]; TA98, with S9, 0.05 mg/plate): 36.0 ± 4.3 Colony/Plate
Number of Revertant ([1]; TA98, without S9, 0.00625 mg/plate): 246.0 ± 16.4 Colony/Plate
Number of Revertant ([1]; TA98, without S9, 0.025 mg/plate): 278.3 ± 4.5 Colony/Plate
Number of Revertant ([1]; TA98, without S9, 0.05 mg/plate): 270.0 ± 11.2 Colony/Plate
bacterial mutagenicity ([1]; preliminary tests, TA98, 100 μg/plate): no bacterial mutagenicity
BASO (Sprague Dawley rats [2]; [4]): 0.0 ± 0.1%
EOSIN (Sprague Dawley rats [2]; [4]): 2.1 ± 1.7%
HCT (Sprague Dawley rats [2]; [4]): 45.0 ± 3.7%
HGB (Sprague Dawley rats [2]; [4]): 14.7 ± 1.2 g/dL
LYMPH (Sprague Dawley rats [2]; [4]): 86.1 ± 5.4%
MCH (Sprague Dawley rats [2]; [4]): 19.5 ± 0.8 pg
MCHC (Sprague Dawley rats [2]; [4]): 32.7 ± 0.3 g/dL
MCV (Sprague Dawley rats [2]; [4]): 59.7 ± 1.7 fL
MONO (Sprague Dawley rats [2]; [4]): 2.3 ± 1.1%
NEUT (Sprague Dawley rats [2]; [4]): 9.6 ± 3.3%
PLT (Sprague Dawley rats [2]; [4]): 606.0 ± 430.1 * 10^3/µL
RBC (Sprague Dawley rats [2]; [4]): 7.5 ± 0.6 10^6/µL
WBC (Sprague Dawley rats [2]; [4]): 8.7 ± 3.4 10^3/µL
BASO (Sprague Dawley rats [2]; [5]): 0.2 ± 0.2%
EOSIN (Sprague Dawley rats [2]; [5]): 1.2 ± 0.3%
HCT (Sprague Dawley rats [2]; [5]): 48.4 ± 2.0%
HGB (Sprague Dawley rats [2]; [5]): 15.8 ± 0.5 g/dL
LYMPH (Sprague Dawley rats [2]; [5]): 84.5 ± 4.1%
MCH (Sprague Dawley rats [2]; [5]): 19.8 ± 0.5 pg
MCHC (Sprague Dawley rats [2]; [5]): 32.7 ± 0.4 g/dL
MCV (Sprague Dawley rats [2]; [5]): 60.6 ± 1.0 fL
MONO (Sprague Dawley rats [2]; [5]): 3.2 ± 2.0%
NEUT (Sprague Dawley rats [2]; [5]): 10.9 ± 3.4%
PLT (Sprague Dawley rats [2]; [5]): 1065.6 ± 199.8 10^3/µL
RBC (Sprague Dawley rats [2]; [5]): 8.0 ± 0.4 10^6/µL
WBC (Sprague Dawley rats [2]; [5]): 7.8 ± 4.5 10^3/µL
BASO (Sprague Dawley rats [2]; male rats, 7.5 mg/kg oral 28 d): 0.0 ± 0.1%
EOSIN (Sprague Dawley rats [2]; male rats, 7.5 mg/kg oral 28 d): 1.2 ± 0.3%
HCT (Sprague Dawley rats [2]; male rats, 7.5 mg/kg oral 28 d): 45.8 ± 1.2%
HGB (Sprague Dawley rats [2]; male rats, 7.5 mg/kg oral 28 d): 15.1 ± 0.4 g/dL
LYMPH (Sprague Dawley rats [2]; male rats, 7.5 mg/kg oral 28 d): 77.2 ± 1.7 %
MCH (Sprague Dawley rats [2]; male rats, 7.5 mg/kg oral 28 d): 19.7 ± 0.5 pg
MCHC (Sprague Dawley rats [2]; male rats, 7.5 mg/kg oral 28 d): 32.9 ± 0.3 g/dL
MCV (Sprague Dawley rats [2]; male rats, 7.5 mg/kg oral 28 d): 59.8 ± 1.5 fL
MONO (Sprague Dawley rats [2]; male rats, 7.5 mg/kg oral 28 d): 2.7 ± 2.4%
NEUT (Sprague Dawley rats [2]; male rats, 7.5 mg/kg oral 28 d): 18.9 ± 3.1%
PLT (Sprague Dawley rats [2]; male rats, 7.5 mg/kg oral 28 d): 1235.2 ± 20.9 * 10^3/µL
RBC (Sprague Dawley rats [2]; male rats, 7.5 mg/kg oral 28 d): 7.7 ± 0.1 10^6/µL
WBC (Sprague Dawley rats [2]; male rats, 7.5 mg/kg oral 28 d): 5.3 ± 2.0 10^3/µL
BASO (Sprague Dawley rats [2]; [6]): 0.1 ± 0.1%
EOSIN (Sprague Dawley rats [2]; [6]): 0.6 ± 0.4%
HCT (Sprague Dawley rats [2]; [6]): 48.3 ± 3.2%
HGB (Sprague Dawley rats [2]; [6]): 15.7 ± 0.9 g/dL
LYMPH (Sprague Dawley rats [2]; [6]): 83.9 ± 3.9 %
MCH (Sprague Dawley rats [2]; [6]): 19.4 ± 0.6 pg
MCHC (Sprague Dawley rats [2]; [6]): 32.4 ± 0.6 g/dL
MCV (Sprague Dawley rats [2]; [6]): 59.8 ± 1.3 fL
MONO (Sprague Dawley rats [2]; [6]): 1.8 ± 1.1%
NEUT (Sprague Dawley rats [2]; [6]): 13.6 ± 3.7 %
PLT (Sprague Dawley rats [2]; [6]): 1372.2 ± 161.8 * 10^3/µL
RBC (Sprague Dawley rats [2]; [6]): 8.1 ± 0.6 10^6/µL
WBC (Sprague Dawley rats [2]; [6]): 6.4 ± 1.1 10^3/µL
A/G (Sprague Dawley rats [3]; [4]): 1.9 ± 0.2
ALP (Sprague Dawley rats [3]; [4]): 147.4 ± 27.6 U/L
ALT (Sprague Dawley rats [3]; [4]): 24.2 ± 1.9 U/L
AST (Sprague Dawley rats [3]; [4]): 58.0 ± 8.5 U/L
Albumin (Sprague Dawley rats [3]; [4]): 3.7 ± 0.2 g/dL
Amylase (Sprague Dawley rats [3]; [4]): 1280.6 ± 111.3 U/L
BUN (Sprague Dawley rats [3]; [4]): 12.0 ± 1.0 mg/dL
CK (Sprague Dawley rats [3]; [4]): 100.2 ± 30.8 U/L
Ca^2+ (Sprague Dawley rats [3]; [4]): 9.9 ± 0.1 mg/dL
Cholesterol (Sprague Dawley rats [3]; [4]): 51.2 ± 9.8 mg/dL
Creatinine (Sprague Dawley rats [3]; [4]): 0.4 ± 0.0 mg/dL
GGT (Sprague Dawley rats [3]; [4]): 1–2 U/L
Globulin (Sprague Dawley rats [3]; [4]): 1.9 ± 0.1 g/dL
Glucose (Sprague Dawley rats [3]; [4]): 182.4 ± 42.9 mg/dL
HDL-C (Sprague Dawley rats [3]; [4]): 16.0 ± 3.4 mg/dL
K^+ (Sprague Dawley rats [3]; [4]): 5.2 ± 0.2
LDH (Sprague Dawley rats [3]; [4]): 92.4 ± 73.8 U/L
Mg^2+ (Sprague Dawley rats [3]; [4]): 2.1 ± 0.1
Na^+ (Sprague Dawley rats [3]; [4]): 139.2 ± 1.6
Phosphate (Sprague Dawley rats [3]; [4]): 8.5 ± 1.0 mg/dL
TB (Sprague Dawley rats [3]; [4]): <0.1 mg/dL
TG (Sprague Dawley rats [3]; [4]): 32.8 ± 5.2 mg/dL
TP (Sprague Dawley rats [3]; [4]): 5.6 ± 0.2
UA (Sprague Dawley rats [3]; [4]): 0.9 ± 0.1 mg/dL
A/G (Sprague Dawley rats [3]; [5]): 1.7 ± 0.1
ALP (Sprague Dawley rats [3]; [5]): 116.4 ± 35.7 U/L
ALT (Sprague Dawley rats [3]; [5]): 32.6 ± 6.2 U/L
AST (Sprague Dawley rats [3]; [5]): 72.6 ± 7.4 U/L
Albumin (Sprague Dawley rats [3]; [5]): 3.8 ± 0.2 g/dL
Amylase (Sprague Dawley rats [3]; [5]): 1240.4 ± 239.9 U/L
BUN (Sprague Dawley rats [3]; [5]): 11.0 ± 0.7 mg/dL
CK (Sprague Dawley rats [3]; [5]): 129.8 ± 59.5 U/L
Ca^2+ (Sprague Dawley rats [3]; [5]): 10.2 ± 0.2 mg/dL
Cholesterol (Sprague Dawley rats [3]; [5]): 47.0 ± 11.8 mg/dL
Cl^− (Sprague Dawley rats [3]; [5]): 104.2 ± 1.3
Creatinine (Sprague Dawley rats [3]; [5]): 0.3 ± 0.1 mg/dL
GGT (Sprague Dawley rats [3]; [5]): 1–2 U/L
Globulin (Sprague Dawley rats [3]; [5]): 2.2 ± 0.1 g/dL
Glucose (Sprague Dawley rats [3]; [5]): 138.2 ± 21.7 mg/dL
HDL-C (Sprague Dawley rats [3]; [5]): 14.6 ± 3.8 mg/dL
K^+ (Sprague Dawley rats [3]; [5]): 5.0 ± 0.7
LDH (Sprague Dawley rats [3]; [5]): 125.4 ± 96.2 U/L
Mg^2+ (Sprague Dawley rats [3]; [5]): 2.4 ± 0.3
Na^+ (Sprague Dawley rats [3]; [5]): 142.6 ± 1.1
Phosphate (Sprague Dawley rats [3]; [5]): 8.5 ± 0.5 mg/dL
TB (Sprague Dawley rats [3]; [5]): <0.1 mg/dL
TG (Sprague Dawley rats [3]; [5]): 27.2 ± 8.1 mg/dL
TP (Sprague Dawley rats [3]; [5]): 6.0 ± 0.3
UA (Sprague Dawley rats [3]; [5]): 1.3 ± 0.6 mg/dL
A/G (Sprague Dawley rats [3]; male rats, 7.5 mg/kg oral 28 d): 1.8 ± 0.1
ALP (Sprague Dawley rats [3]; male rats, 7.5 mg/kg oral 28 d): 238.4 ± 43.9 U/L
ALT (Sprague Dawley rats [3]; male rats, 7.5 mg/kg oral 28 d): 28.2 ± 3.1 U/L
AST (Sprague Dawley rats [3]; male rats, 7.5 mg/kg oral 28 d): 61.4 ± 4.3 U/L
Albumin (Sprague Dawley rats [3]; male rats, 7.5 mg/kg oral 28 d): 3.4 ± 0.1 g/dL
Amylase (Sprague Dawley rats [3]; male rats, 7.5 mg/kg oral 28 d): 1931.0 ± 241.1 U/L
BUN (Sprague Dawley rats [3]; male rats, 7.5 mg/kg oral 28 d): 11.2 ± 1.3 mg/dL
CK (Sprague Dawley rats [3]; male rats, 7.5 mg/kg oral 28 d): 185.6 ± 96.1 U/L
Ca^2+ (Sprague Dawley rats [3]; male rats, 7.5 mg/kg oral 28 d): 9.7 ± 0.2 mg/dL
Cholesterol (Sprague Dawley rats [3]; male rats, 7.5 mg/kg oral 28 d): 41.2 ± 6.3 mg/dL
Creatinine (Sprague Dawley rats [3]; male rats, 7.5 mg/kg oral 28 d): 0.3 ± 0.0 mg/dL
GGT (Sprague Dawley rats [3]; male rats, 7.5 mg/kg oral 28 d): <1 U/L
Globulin (Sprague Dawley rats [3]; male rats, 7.5 mg/kg oral 28 d): 1.9 ± 0.1 g/dL
Glucose (Sprague Dawley rats [3]; male rats, 7.5 mg/kg oral 28 d): 178.0 ± 25.7 mg/dL
HDL-C (Sprague Dawley rats [3]; male rats, 7.5 mg/kg oral 28 d): 12.8 ± 1.5 mg/dL
K^+ (Sprague Dawley rats [3]; male rats, 7.5 mg/kg oral 28 d): 6.5 ± 0.3
LDH (Sprague Dawley rats [3]; male rats, 7.5 mg/kg oral 28 d): 219.6 ± 139.5 U/L
Mg^2+ (Sprague Dawley rats [3]; male rats, 7.5 mg/kg oral 28 d): 2.0 ± 0.1
Na^+ (Sprague Dawley rats [3]; male rats, 7.5 mg/kg oral 28 d): 141.8 ± 0.8
Phosphate (Sprague Dawley rats [3]; male rats, 7.5 mg/kg oral 28 d): 9.1 ± 0.9 mg/dL
TB (Sprague Dawley rats [3]; male rats, 7.5 mg/kg oral 28 d): <0.1 mg/dL
TG (Sprague Dawley rats [3]; male rats, 7.5 mg/kg oral 28 d): 33.0 ± 8.1 mg/dL
TP (Sprague Dawley rats [3]; male rats, 7.5 mg/kg oral 28 d): 5.3 ± 0.2
UA (Sprague Dawley rats [3]; male rats, 7.5 mg/kg oral 28 d): 1.5 ± 0.1 mg/dL
A/G (Sprague Dawley rats [3]; [6]): 1.8 ± 0.1
ALP (Sprague Dawley rats [3]; [6]): 256.8 ± 44.0 U/L
ALT (Sprague Dawley rats [3]; [6]): 27.6 ± 2.1 U/L
AST (Sprague Dawley rats [3]; [6]): 60.2 ± 3.3 U/L
Albumin (Sprague Dawley rats [3]; [6]): 3.5 ± 0.2 g/dL
Amylase (Sprague Dawley rats [3]; [6]): 2016.4 ± 289.7 U/L
BUN (Sprague Dawley rats [3]; [6]): 11.6 ± 1.8 mg/dL
CK (Sprague Dawley rats [3]; [6]): 156.4 ± 31.1 U/L
Ca^2+ (Sprague Dawley rats [3]; [6]): 9.9 ± 0.4 mg/dL
Cholesterol (Sprague Dawley rats [3]; [6]): 44.0 ± 2.5 mg/dL
Cl^− (Sprague Dawley rats [3]; [6]): 104.6 ± 2.1
Creatinine (Sprague Dawley rats [3]; [6]): 0.3 ± 0.0 mg/dL
GGT (Sprague Dawley rats [3]; [6]): <1 U/L
Globulin (Sprague Dawley rats [3]; [6]): 2.0 ± 0.2 g/dL
Glucose (Sprague Dawley rats [3]; [6]): 178.0 ± 14.5 mg/dL
HDL-C (Sprague Dawley rats [3]; [6]): 15.2 ± 2.8 mg/dL
K^+ (Sprague Dawley rats [3]; [6]): 6.4 ± 0.6
LDH (Sprague Dawley rats [3]; [6]): 109.8 ± 33.5 U/L
Mg^2+ (Sprague Dawley rats [3]; [6]): 2.1 ± 0.2
Na^+ (Sprague Dawley rats [3]; [6]): 141.4 ± 2.3
Phosphate (Sprague Dawley rats [3]; [6]): 9.6 ± 1.6 mg/dL
TB (Sprague Dawley rats [3]; [6]): <0.1 mg/dL
TG (Sprague Dawley rats [3]; [6]): 46.2 ± 8.3 mg/dL
TP (Sprague Dawley rats [3]; [6]): 5.5 ± 0.4
UA (Sprague Dawley rats [3]; [6]): 1.6 ± 0.3 mg/dL
